Assay results published in patent publication US20090227575A1, “7H-PYRROLO[2,3-H]QUINAZOLINE COMPOUNDS, THEIR USE AS mTOR KINASE AND PI3 KINASE INHIBITORS, AND THEIR [sequence]” (Wyeth, priority 2008, published 2009).
pIC50: −log10 of the molar value.

How the values were obtained:
Type in all cases: biochemical
PI3K-gamma = PI3K-gamma (Homo sapiens, UniProt P48736); assay: PI3K-gamma fluorescence polarization assay; settings: read-out: PI3 Kinase γ IC50
Experimental: (§1) The reaction buffer was 20 mM HEPES, pH 7.5, 2 mM MgCl2, 0.05% CHAPS; and 0.01% βME (added fresh). The Stop/Detection Buffer was 100 mM HEPES, pH 7.5, 4 mM EDTA, 0.05% CHAPS; ATP 20 mM in water; PIP2 (diC8, Echelon, Salt Lake City Utah cat #P-4508) 1 mM in water (MW=856.5). The GST-GRP was 1.75 mg/mL or 1.4 mg/mL in 10% glycerol. The Red detector (TAMRA) was 2.5 μM. Nunc 384-well black polypropylene fluorescent plates were used for PI3K assays.
(§2) The assay is run by placing 5 μL of diluted enzyme per well, then 5 μL of diluted compound (or 9.5 μL enzyme then 0.5 μL compound in DMSO) is added and mixed. Then, 10 μL substrate is added to start the reaction. The samples are incubated 30-60 minutes, then the reaction is stopped by adding 20 μL stop/detector mix. PI3K is diluted with reaction buffer (e.g., 5 μL or 7.5 μL PI3K into 620 μL reaction buffer), and 5 μL of diluted enzyme is used per well. A 5 μL portion of reaction buffer or of drug diluted in buffer (e.g., 4 μL/100 so final DMSO is 1% in reaction) is added to each. Pipetting up and down mixes the samples. Alternatively, the enzyme can be diluted to 1215 μL. In this case 9.8 μL is added per well and 0.2 μL compound is added in DMSO.
(§3) To prepare 1 mL of substrate solution, 955 μL reaction buffer, 40 μL PIP2, and 2.5 μL ATP are mixed. 10 μL of substrate is added to each well to start the reaction. […] The stop/detector mix is prepared by mixing 4 μL Red detector and 1.6 μL or 2.0 μL GST-GRP with 1 mL stop buffer, which results in 10 nM probe and 70 nM GST-GRP. 20 μL of the stop/detector mix is added to each well to stop the reaction. The plates are read after 30-90 minutes keeping the red probe solutions dark. For the zero time point, stop/detector mix is added to the enzyme just before adding substrate. For an extra control, stop/detector mix is added to buffer (no enzyme) and substrate or to just buffer (no substrate). […] The recommended reaction has 0.06 μL per 20 μL (0.015 μg/20 μL) or 0.01125 μg/15 μL or 0.75 μg/mL.
(§4) Plates are read on machines with filters for TAMRA. The units are mP with no enzyme controls reading app 190-220 mP units. Fully active enzyme reduces fluorescence polarization down to 70-100 mP after 30 minutes. An active compound raises the mP values halfway to control or to 120-150 mP units.

PI3K-alpha = PI3K-alpha (Homo sapiens, UniProt P42336); assay: PI3K-alpha fluorescence polarization assay; settings: read-out: PI3 Kinase α IC50
Experimental: as §1, §2, §3, §4

Human mTOR = Human mTOR (Homo sapiens, UniProt P42345); assay: mTOR kinase assay (DELFIA format, purified enzyme); set-up: FLAG; settings: read-out: TOR Kinase IC50

Sequence of PI3K-gamma (P48736 whole entry, species assumed): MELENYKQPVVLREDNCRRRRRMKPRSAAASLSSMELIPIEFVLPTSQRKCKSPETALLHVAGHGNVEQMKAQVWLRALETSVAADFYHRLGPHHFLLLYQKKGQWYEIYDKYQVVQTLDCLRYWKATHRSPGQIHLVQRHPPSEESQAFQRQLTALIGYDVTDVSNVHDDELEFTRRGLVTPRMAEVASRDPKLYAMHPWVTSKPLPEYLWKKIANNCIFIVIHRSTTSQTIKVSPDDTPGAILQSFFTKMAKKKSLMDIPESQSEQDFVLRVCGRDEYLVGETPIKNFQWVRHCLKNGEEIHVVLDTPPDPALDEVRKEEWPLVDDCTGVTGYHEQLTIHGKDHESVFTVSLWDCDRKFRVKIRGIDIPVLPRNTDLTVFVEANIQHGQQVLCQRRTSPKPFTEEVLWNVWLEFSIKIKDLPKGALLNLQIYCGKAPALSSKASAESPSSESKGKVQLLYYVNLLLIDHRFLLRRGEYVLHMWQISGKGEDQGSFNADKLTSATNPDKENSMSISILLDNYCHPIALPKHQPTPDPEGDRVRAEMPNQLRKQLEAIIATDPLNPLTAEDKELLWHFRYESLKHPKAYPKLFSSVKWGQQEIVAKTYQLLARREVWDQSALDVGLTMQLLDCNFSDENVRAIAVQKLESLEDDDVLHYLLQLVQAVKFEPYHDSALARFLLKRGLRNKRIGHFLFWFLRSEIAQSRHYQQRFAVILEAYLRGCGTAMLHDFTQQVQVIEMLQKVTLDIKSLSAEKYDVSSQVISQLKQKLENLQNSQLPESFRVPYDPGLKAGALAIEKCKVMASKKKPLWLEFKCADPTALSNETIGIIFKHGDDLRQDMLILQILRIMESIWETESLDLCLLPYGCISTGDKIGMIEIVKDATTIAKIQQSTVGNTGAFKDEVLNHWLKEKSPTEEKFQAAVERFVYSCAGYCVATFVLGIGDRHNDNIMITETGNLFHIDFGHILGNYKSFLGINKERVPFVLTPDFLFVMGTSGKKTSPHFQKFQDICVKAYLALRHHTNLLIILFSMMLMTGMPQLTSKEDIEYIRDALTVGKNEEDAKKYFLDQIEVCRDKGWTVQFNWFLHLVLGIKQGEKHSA
Sequence of PI3K-alpha (P42336 whole entry, species assumed): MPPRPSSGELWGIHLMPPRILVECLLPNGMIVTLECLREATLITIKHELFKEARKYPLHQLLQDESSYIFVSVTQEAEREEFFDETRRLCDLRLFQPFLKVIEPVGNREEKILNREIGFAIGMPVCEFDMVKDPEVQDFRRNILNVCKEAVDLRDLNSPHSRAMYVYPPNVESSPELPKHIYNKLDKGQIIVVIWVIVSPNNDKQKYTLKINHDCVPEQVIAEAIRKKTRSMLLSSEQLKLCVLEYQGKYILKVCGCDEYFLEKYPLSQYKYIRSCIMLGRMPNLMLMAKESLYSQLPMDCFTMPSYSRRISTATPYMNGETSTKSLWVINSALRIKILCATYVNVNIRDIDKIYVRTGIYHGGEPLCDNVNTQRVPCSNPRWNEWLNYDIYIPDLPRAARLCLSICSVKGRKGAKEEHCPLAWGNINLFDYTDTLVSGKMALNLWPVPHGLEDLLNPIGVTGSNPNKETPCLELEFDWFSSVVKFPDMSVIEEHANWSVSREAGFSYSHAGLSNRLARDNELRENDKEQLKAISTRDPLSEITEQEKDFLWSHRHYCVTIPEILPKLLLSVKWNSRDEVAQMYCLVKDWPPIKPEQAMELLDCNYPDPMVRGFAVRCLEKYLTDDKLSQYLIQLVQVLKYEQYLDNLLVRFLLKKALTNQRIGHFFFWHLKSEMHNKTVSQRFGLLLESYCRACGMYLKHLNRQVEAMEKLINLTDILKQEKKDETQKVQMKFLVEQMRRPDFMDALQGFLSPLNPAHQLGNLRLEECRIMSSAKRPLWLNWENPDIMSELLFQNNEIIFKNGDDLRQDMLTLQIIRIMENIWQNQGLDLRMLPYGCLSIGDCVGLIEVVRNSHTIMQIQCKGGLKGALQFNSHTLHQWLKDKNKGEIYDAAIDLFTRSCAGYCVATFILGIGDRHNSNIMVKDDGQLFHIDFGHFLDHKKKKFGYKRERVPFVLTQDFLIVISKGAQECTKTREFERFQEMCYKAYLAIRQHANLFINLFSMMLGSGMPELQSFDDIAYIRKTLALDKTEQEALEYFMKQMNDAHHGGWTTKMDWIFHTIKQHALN
Sequence of PI3K-alpha (P27986 whole entry partner, species assumed): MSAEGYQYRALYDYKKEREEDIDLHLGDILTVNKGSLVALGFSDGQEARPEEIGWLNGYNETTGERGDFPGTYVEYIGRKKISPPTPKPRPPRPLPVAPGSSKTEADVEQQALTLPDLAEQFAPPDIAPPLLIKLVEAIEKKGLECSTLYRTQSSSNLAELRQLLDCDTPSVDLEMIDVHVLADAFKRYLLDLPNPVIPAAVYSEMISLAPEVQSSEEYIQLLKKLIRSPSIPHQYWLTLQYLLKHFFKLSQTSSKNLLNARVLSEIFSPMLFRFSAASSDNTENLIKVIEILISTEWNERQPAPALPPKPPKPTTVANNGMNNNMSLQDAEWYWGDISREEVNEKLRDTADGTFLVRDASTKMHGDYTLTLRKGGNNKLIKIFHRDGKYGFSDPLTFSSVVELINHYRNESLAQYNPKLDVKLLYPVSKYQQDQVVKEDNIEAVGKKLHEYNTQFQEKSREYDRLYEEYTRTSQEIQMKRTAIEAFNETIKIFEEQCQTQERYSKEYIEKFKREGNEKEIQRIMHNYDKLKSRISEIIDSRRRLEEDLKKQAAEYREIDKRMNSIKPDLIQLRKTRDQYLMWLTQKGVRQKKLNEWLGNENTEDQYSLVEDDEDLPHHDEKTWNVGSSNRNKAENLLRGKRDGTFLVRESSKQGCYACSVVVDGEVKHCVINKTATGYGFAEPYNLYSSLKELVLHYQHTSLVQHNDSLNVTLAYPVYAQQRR

SMILES | pIC50 (PI3K-gamma) | pIC50 (PI3K-alpha) | pIC50 (Human mTOR)
Cn1ccc2c3nc(-c4ccc(NC(=O)NCc5ccco5)cc4)nc(N4CCOCC4)c3ccc21 [Example 7, 1-(2-furylmethyl)-3-[4-(7-methyl-4-morpholin-4-yl-7H-pyrrolo[2,3-h]quinazolin-2-yl)phenyl]urea] | 5.46 | 5.77 | 6.25
Cn1ccc2c3nc(-c4ccc(NC(=O)NCCCn5ccnc5)cc4)nc(N4CCOCC4)c3ccc21 [Example 8, 1-[3-(1H-imidazol-1-yl)propyl]-3-[4-(7-methyl-4-morpholin-4-yl-7H-pyrrolo[2,3-h]quinazolin-2-yl)phenyl]urea] | 5.52 | 6.37 | 6.72
Cn1ccc2c3nc(-c4ccc(NC(=O)Nc5ccccc5)cc4)nc(N4CCOCC4)c3ccc21 [Example 10, 1-[4-(7-methyl-4-morpholin-4-yl-7H-pyrrolo[2,3-h]quinazolin-2-yl)phenyl]-3-phenylurea] | 6.61 | 7.15 | 7.68
Cn1ccc2c3nc(-c4ccc(NC(=O)Nc5ccncc5)cc4)nc(N4CCOCC4)c3ccc21 [Example 11, 1-[4-(7-methyl-4-morpholin-4-yl-7H-pyrrolo[2,3-h]quinazolin-2-yl)phenyl]-3-pyridin-4-ylurea] | 6.36 | 7.00 | 8.43
CC(C)c1ccc(NC(=O)Nc2ccc(-c3nc(N4CCOCC4)c4ccc5c(ccn5C)c4n3)cc2)cc1 [Example 12, 1-(4-isopropylphenyl)-3-[4-(7-methyl-4-morpholin-4-yl-7H-pyrrolo[2,3-h]quinazolin-2-yl)phenyl]urea] | 5.88 | 5.70 | 6.45
Cn1ccc2c3nc(-c4ccc(NC(=O)NCc5ccccn5)cc4)nc(N4CCOCC4)c3ccc21 [Example 15, 1-[4-(7-methyl-4-morpholin-4-yl-7H-pyrrolo[2,3-h]quinazolin-2-yl)phenyl]-3-(pyridin-2-ylmethyl)urea] | 5.48 | 5.60 | 5.67
CC(=O)Nc1ccc(-c2nc(N3CCOCC3)c3ccc4c(ccn4C)c3n2)cc1 [Example 16, N-[4-(7-methyl-4-morpholin-4-yl-7H-pyrrolo[2,3-h]quinazolin-2-yl)phenyl]acetamide] | < 5.00 | 5.51 | 6.43
Cn1ccc2c3nc(-c4ccc(NC(=O)c5cccnc5)cc4)nc(N4CCOCC4)c3ccc21 [Example 17, N-[4-(7-methyl-4-morpholin-4-yl-7H-pyrrolo[2,3-h]quinazolin-2-yl)phenyl]nicotinamide] | 5.01 | < 5.00 | 5.85
Cn1ccc2c3nc(-c4ccc(NC(=O)c5ccncc5)cc4)nc(N4CCOCC4)c3ccc21 [Example 18, N-[4-(7-methyl-4-morpholin-4-yl-7H-pyrrolo[2,3-h]quinazolin-2-yl)phenyl]isonicotinamide] | 5.25 | 5.35 | 5.84
CC(O)c1cccc(-c2nc(N3CCOCC3)c3ccc4c(ccn4C)c3n2)c1 (stereo not drawn) [Example 24, 1-[3-(7-methyl-4-morpholin-4-yl-7H-pyrrolo[2,3-h]quinazolin-2-yl)phenyl]ethanol] | < 5.00 | 5.63 | 5.78
CCC(O)c1cccc(-c2nc(N3CCOCC3)c3ccc4c(ccn4C)c3n2)c1 (stereo not drawn) [Example 25, 1-[3-(7-methyl-4-morpholin-4-yl-7H-pyrrolo[2,3-h]quinazolin-2-yl)phenyl]propan-1-ol] | < 5.00 | 5.12 | 5.52
C=CC(O)c1cccc(-c2nc(N3CCOCC3)c3ccc4c(ccn4C)c3n2)c1 (stereo not drawn) [Example 26, 1-[3-(7-methyl-4-morpholin-4-yl-7H-pyrrolo[2,3-h]quinazolin-2-yl)phenyl]prop-2-en-1-ol] | < 5.00 | 5.27 | 5.68
Cn1ccc2c3nc(-c4cccc(C(O)c5ccccc5)c4)nc(N4CCOCC4)c3ccc21 (stereo not drawn) [Example 29, [3-(7-methyl-4-morpholin-4-yl-7H-pyrrolo[2,3-h]quinazolin-2-yl)phenyl](phenyl)methanol] | 5.39 | 5.53 | 5.42
CN(C)CCn1ccc2c3nc(-c4cccc(CO)c4)nc(N4CCOCC4)c3ccc21 [Example 30, (3-{7-[2-(dimethylamino)ethyl]-4-morpholin-4-yl-7H-pyrrolo[2,3-h]quinazolin-2-yl}phenyl)methanol] | 5.31 | 6.34 | 5.04

Other lines, results leading:

pIC50 (PI3K-gamma) | pIC50 (PI3K-alpha) | pIC50 (Human mTOR) | SMILES
5.29 | 5.57 | 7.12 | Cn1ccc2c3nc(-c4ccc(NC(=O)Nc5ccccn5)cc4)nc(N4CCOCC4)c3ccc21 [Example 9, 1-[4-(7-methyl-4-morpholin-4-yl-7H-pyrrolo[2,3-h]quinazolin-2-yl)phenyl]-3-pyridin-2-ylurea]
6.63 | 7.21 | 6.59 | Cn1ccc2c3nc(-c4ccc(NC(=O)Nc5cccc(Cl)c5)cc4)nc(N4CCOCC4)c3ccc21 [Example 13, 1-(3-chlorophenyl)-3-[4-(7-methyl-4-morpholin-4-yl-7H-pyrrolo[2,3-h]quinazolin-2-yl)phenyl]urea]
6.20 | 6.62 | 6.90 | Cn1ccc2c3nc(-c4ccc(NC(=O)Nc5ccc(C(F)(F)F)cc5)cc4)nc(N4CCOCC4)c3ccc21 [Example 14, 1-[4-(7-methyl-4-morpholin-4-yl-7H-pyrrolo[2,3-h]quinazolin-2-yl)phenyl]-3-[4-(trifluoromethyl)phenyl]urea]
5.21 | 4.92 | 5.90 | Cn1ccc2c3nc(-c4ccc(NC(=O)c5ccc(F)cc5)cc4)nc(N4CCOCC4)c3ccc21 [Example 19, 4-fluoro-N-[4-(7-methyl-4-morpholin-4-yl-7H-pyrrolo[2,3-h]quinazolin-2-yl)phenyl]benzamide]
5.68 | 5.48 | 6.41 | CCOC(=O)Nc1ccc(-c2nc(N3CCOCC3)c3ccc4c(ccn4C)c3n2)cc1 [Example 20, ethyl [4-(7-methyl-4-morpholin-4-yl-7H-pyrrolo[2,3-h]quinazolin-2-yl)phenyl]carbamate]
5.21 | 5.08 | 5.28 | Cn1ccc2c3nc(-c4ccc(NS(=O)(=O)c5ccccc5)cc4)nc(N4CCOCC4)c3ccc21 [Example 22, N-[4-(7-methyl-4-morpholin-4-yl-7H-pyrrolo[2,3-h]quinazolin-2-yl)phenyl]benzenesulfonamide]
5.02 | 5.27 | 6.49 | Cn1ccc2c3nc(-c4cccc(C=O)c4)nc(N4CCOCC4)c3ccc21 [Example 23, 3-(7-methyl-4-morpholin-4-yl-7H-pyrrolo[2,3-h]quinazolin-2-yl)benzaldehyde]
5.18 | 5.18 | 5.55 | C=CCC(O)c1cccc(-c2nc(N3CCOCC3)c3ccc4c(ccn4C)c3n2)c1 (stereo not drawn) [Example 27, 1-[3-(7-methyl-4-morpholin-4-yl-7H-pyrrolo[2,3-h]quinazolin-2-yl)phenyl]but-3-en-1-ol]
5.34 | 5.60 | 5.57 | CC(C)CC(O)c1cccc(-c2nc(N3CCOCC3)c3ccc4c(ccn4C)c3n2)c1 (stereo not drawn) [Example 28, 3-methyl-1-[3-(7-methyl-4-morpholin-4-yl-7H-pyrrolo[2,3-h]quinazolin-2-yl)phenyl]butan-1-ol]
